Consider two substances from patent publication US20230073125A1, “PERIODONTAL MICROPATCH AND USES THEREOF” (priority 2019, published 2023).

One data set concerns M1 (and M0) macrophages. The data set can be described thus: Macrophage polarization, transwell, flow cytometry and qPCR. Format: cell-based, rat. Conditions: treatment with IL-4; qPCR of markers and cytokines. The method, then:
Costar transwell inserts (pore size 1 μm) was used for assessing the effectiveness of the released factor(s) on the polarization of macrophages and differentiation of T cells. Patches containing cytokines (4 experimental groups: no drug, IL-4 alone, TGF-β alone and IL-4/TGF-β) placed in the upper chamber. The bottom chamber contains artificial saliva modified media and 10^5 of either primary monocytes or naïve T cells or both (5×10^4). The isolation of primary monocytes was performed as described. Naïve T cells isolated using EasySep Rat T Cell Isolation Kit (STEMCELL Technologies) according to manufacturer's protocol. The change in macrophage phenotypes tested at different time points (day 1-5) using flow cytometry by checking the surface markers (M1): major histocompatibility complex class II (MHC II), CCR7, CD80 and CD86; M2: CD163 (M2c) and CD206 (M2a)). […] Quantitative PCR (qPCR) was used to determine the gene expression of these inflammatory cytokines and cellular markers (as exemplified in FIG. 11D). […] The expression of Foxp3 was measured by flow cytometry. […]
Costar transwell inserts (pore size 1 μm) were used to assess the effectiveness of released factor(s) on macrophage polarization and T cell differentiation. […] Quantitative PCR (qPCR) was used to determine gene expression of inflammatory cytokines and cellular markers (as exemplified in FIG. 23A-23B). […]

A short description of data set [1]: Cytokine loading and release from microparticles/microneedles in artificial saliva, ELISA. It is filed as physicochemical. Conditions: 37° C., up to four weeks. An excerpt: For high quality periodontal treatment, the periodontal patch should act as an immunomodulator by delivering small molecules drugs and/or bioactive molecules to control infection (e.g., with antibiotics), modulate inflammation (e.g., FIG. 11A) and induce the recovery of alveolar bone. Here we used same method as described in Approach 1 to fabricate microneedles (FIG. 10A). IL-4- or TGF-β-loaded silica-heparin microparticles mixed with polymer (e.g., alginate) solution and cast into the molds to generate the microneedle patches. […] At selected time intervals (every 12 hour), the medium was collected and analyzed for released proteins using ELISA Kits. At the end of release study, the remaining proteins extracted from the particles/needles by dissolving them and the percentage of cumulative released proteins measured according to methods explained before. The released percentage measured based on the ratio of the amount released at each time point to the amount that was initially loaded. […]
The microneedle chemical formulation can be further modified for co-encapsulation of both small molecule antibiotics (encapsulated in PLGA NPs) and cytokines (encapsulated in alginate-heparin microparticles), which was integrated and addressed in Aim 3. […] At selected time intervals (every 12 hours), media was collected and analyzed for released proteins using ELISA. […]

For another data set, the system named is periodontal disease. Particulars: 40 ng local administration per treatment, rat model; cited from earlier work.
A further data set has as its system naïve CD4+ T-cells. As to the kind of experiment: Induced Treg differentiation, Foxp3/CD25 by flow cytometry. Format: cell-based, rat. Particulars: soluble (no particles) TGF-β. (In general: Flow cytometry measures light scatter and fluorescence of single cells or particles in a stream.)

Description for naïve CD4+ T-cells: Activation and differentiation of T cells were tested by considering expression of CD25 surface activation marker (FIG. 11C) as well as intracellular expression of the transcription factor Foxp3. […] We also tested the ability of controlling differentiation of naïve T-cells into induced Treg by providing sustained release TGF-β from alginate-based particles. We cultured rigorously naïve CD4+ T-cells with anti-CD3 and anti-CD28 for 4 days in the wells containing the microparticles loaded with TGF-β at different concentrations and compared them to the soluble (no particles) counterparts at identical concentrations. The expression of Foxp3 was measured by flow cytometry. […] T cell activation and differentiation was tested by expression of CD25 surface activation marker and intracellular expression of the transcription factor Foxp3.

As for interleukin 4 [IL-4], in the data set with M1 (and M0) macrophages, the macrophage reprogramming result is “successful reprograming of M1 (and M0) macrophages toward M2”. Further, the “cytokine release from designed platforms” value in data set [1] is listed as “prolonged release”. Besides, in the data set with periodontal disease, the bone regeneration result is “helps regenerate bone” and the periodontal disease progression entry is recorded as “reduces periodontal disease progression”.
For transforming growth factor beta [TGF-β], the “Foxp3 expression at very high soluble concentrations” value in the data set on naïve CD4+ T-cells was “plateaued and was even slightly suppressed”. Further, the “cytokine release from designed platforms” value in data set [1] was “prolonged release”.
